Reference: patent publication US20060247156A1, “Use of neuropeptides for ligament, cartilage, and bone healing” (priority 2004, published 2006)

What was measured:
[1] = tested on: MCL; test: MCL organ culture with guanethidine, mechanical testing; details: organ culture 10 days with guanethidine in media
Protocol: Bilateral MCLs (n=6) including intact femoral and tibial segments were aseptically harvested from untreated rats.
During and after harvest, tissues were rinsed in sterile phosphate buffered saline (PBS) containing penicillin (100 U/mL), streptomycin (100 μg/mL), and fungizone (0.25 μg/mL). Bone blocks were trimmed in order to minimize the amount of bone marrow, which may alter the culture environment. Tissues were then cultured in Dulbecco's Modified Eagle's Medium (DMEM) supplemented with 10% fetal bovine serum, nonessential amino acids (0.1 mM), L-gutamine (4 mM), penicillin (100 U/mL), streptomycin (100 μg/mL), and fungizone (0.25 μg/mL). […] The cultures were maintained in an incubator at 37° C. and 5% CO2. Media were changed every 48 hours at which time tissues were rinsed with sterile PBS to reduce drug carryover into the fresh media containing the treatment drug or equivalent volume of carrier. Organ culture was maintained for 10 days after which time the MCLs were tested mechanically in the same manner as the in vivo treatment group (described below).

[2] = tested on: sympathetic nervous system; details: rat, in vivo
Protocol: For all groups, anesthesia (isofluorane 0.5-3%) was initiated in an induction chamber and maintained with a facemask. […] Both groups were survived for 10 days following implantation of the pump at which time the animals were euthanized with intraperitoneal injection of pentobarbitone. Throughout the study only one ligament per animal was used for a particular experimental test protocol (described below).
Statistical analysis was performed using an unpaired t-test (alpha=0.05) to compare differences between the control and treatment groups.

[3] = tested on: intact MCL; details: guanethidine 40 mg/kg/day, 10 days
Protocol: Ligament thickness and width was measured optically, and MCL area was estimated with elliptical geometry. […] For strain measurements, optical markers were placed onto the ligament tissue near the insertion sites. A small preload of 0.1N was applied to the ligaments in order to obtain a uniform starting point. The ligaments were then preconditioned to 1% strain for 10 cycles.
The mechanical properties that were examined in this study were maximum force, ultimate stress, strain at failure, elastic modulus, and area.

`N=C(N)NCCN1CCCCCCC1` [guanethidine] was tested, and the ultimate stress [1] was 70.29±19.15 MPa, the “abnormalities in movement, body weight, or behavior” value [2] was “No abnormalities” and the “mean ultimate tensile force” value [3] was “not significantly decreased”. The strain at failure [3] was 8.1±0.4% and the wet weight ([3]; tissue hydration) was 6.8 ± 0.7 g.
